For test [1], the system named is platelets. In words: U-46619-induced platelet aggregation by light transmittance aggregometry (LTA) in PRP. Type of test: cell-based, human. The method, then:
(§1) Blood from healthy individuals (n=6-7) was obtained by venipuncture and anticoagulated with FXa inhibitor. Platelet rich plasma (PRP) was obtained, and LTA was performed by standard procedures, initiating platelet aggregation with U-46619 (10 μM) or collagen (4 μg/ml).

Test [2] deals with platelets. In words: Collagen-induced platelet aggregation by light transmittance aggregometry (LTA) in PRP (Example 1). Type of test: cell-based, human. The method, then:
as §1
LTA was performed on PRP samples using collagen (4 micrograms/ml) to induce platelet aggregation.

The test system of test [3] is platelets. Briefly: Real time perfusion chamber assay, blood perfused through collagen-coated capillaries (Example 1). Type of test: cell-based, human. As to conditions: non-aspirinated blood, ifetroban added in vitro; aspirin 325 mg per day for 2 weeks; FIG. 3.
The subject of test [4] is platelets. Briefly: Real time perfusion chamber assay (RTTP), healthy volunteers and AERD patients (Example 2). Type of test: cell-based, human. As to conditions: 100 nM or 350 nM spiked in vitro. The procedure:
Real time perfusion chamber assays (RTTP) were performed using blood anticoagulated with Fxa inhibitor (10 uM 034) and perfused through collagen-coated capillaries (1100/sec). Thrombus formation on the collagen surface was monitored in real time using fluorescence microscopy to detect fluorescently labeled (R6G) platelets.
(§2) Assays were performed pre- (+/−ifetroban, spiked in vitro) and post-aspirin desensitization.

In test [5] the test system is platelets. In words: Collagen-induced platelet aggregation LTA, healthy volunteers and AERD patients (Example 2). Type of test: cell-based, human. As to conditions: for anti-aggregatory activity in collagen-induced platelet aggregation assay: FIG. 5. The procedure:
(§3) Light transmittance aggregometry (LTA) assays were performed by standard procedures, initiating platelet aggregation with collagen or arachidonic acid.
as §2

Test [6] deals with platelets. In words: Arachidonic acid-induced platelet aggregation LTA (Example 2). As to conditions: all three tested doses (1 μM, 350 nM, 100 nM); healthy volunteers and AERD patients; FIGS. 7A and 7B. Type of test: cell-based, human. The procedure: as §3, §2
For test [7] the following is noted: hundreds of randomized clinical trials; BMJ 324:71-86 (2002); cited from earlier work.

Some results are limits rather than exact numbers.

As to `CCCCCNC(=O)c1coc([C@H]2[C@@H](Cc3ccccc3CCC(=O)[O-])[C@@H]3CC[C@H]2O3)n1.[Na+]` [ifetroban, [1S-(1α,2α,3α,4α)]-2-[[3-[4-[(pentylamino)carbonyl]-2-oxazolyl]-7-oxabicyclo[2.2.1]hept-2-yl]methyl]benzenepropanoic acid], in test [1] (U-46619 10 μM, PRP anticoagulated with FXa inhibitor, ifetroban added in vitro, FIG. 2), the “concentration that fully inhibited U-46619-induced platelet aggregation” value is given as more than 30 nM. Also, in test [1] (U-46619-induced platelet aggregation), the “concentration predicted by U-46619-induced platelet aggregation assays” value is 30 nM. Also, the “concentration in collagen-induced assay relative to that predicted by U-46619-induced assay” value in test [2] (350 nM v. 30 nM) was “approximately 10 times”. In addition, the “concentration for maximum inhibition of collagen-induced platelet aggregation” value in test [2] (collagen 4 μg/ml, non-aspirinated PRP, ifetroban added in vitro, FIG. 2) is “greater than or equal to 350 nM”. Further, in test [2] (collagen versus U-46619), the “amount required to inhibit collagen-induced versus U-46619-induced platelet aggregation” value is on record as “approximately 10 fold”. Moreover, the “concentration providing equivalent or superior inhibitory activity on thrombosis as aspirin” value in test [3] was not below 300 nM. The “antithrombotic activity in perfusion chamber assay” value is reported as “significant antithrombotic activity” in test [4] (AERD patients, FIG. 4B) and “significant antithrombotic activity” in test [4] (healthy volunteers, FIG. 4A). For the same compound, the “anti-aggregatory activity in collagen-induced platelet aggregation assay” value in test [5] (AERD patients) and in test [5] (healthy volunteers) was “significant anti-aggregatory activity” in each case. Further, the “concentration reproducing aspirin effects on collagen-induced platelet aggregation and thrombosis” value in test [5] (AERD patients, FIG. 5B) was more than 100 nM; in test [5] (normal volunteers, FIG. 5A) it was more than 100 nM. Also, the “concentration showing statistically significant inhibition of collagen-induced platelet aggregation” value in test [5] (AERD patients, FIG. 5B) is listed as more than 100 nM; in test [5] (normal volunteers (P=0.0281), FIG. 5A) it was more than 100 nM. In addition, in test [5] (healthy volunteers, 100 nM ifetroban), the “inhibition of platelet aggregation compared with aspirin” value is on record as “significantly lower inhibition of platelet aggregation than aspirin”. For the same compound, the “effect on arachidonic acid-induced platelet aggregation” value in test [6] is on record as “fully blocked”.

As for `CC(=O)Oc1ccccc1C(=O)O` [aspirin], the “reduction of the extent of collagen-induced platelet aggregation v. baseline (mean+sem)” value in test [2] (twenty healthy individuals, aspirin 325 mg/day for two weeks, collagen 4 micrograms/ml, PRP) is 39+/−6.0%. Besides, in test [7], the “reduction in adverse events” value is listed as 20-25%.

Source of the values: patent US20090012136A1, “UNIT DOSE FORMULATIONS AND METHODS OF TREATING AND PREVENTING THROMBOSIS WITH THROMBOXANE RECEPTOR ANTAGONISTS” (PORTOLA PHARMACEUTICALS, INC., priority 2007, published 2009).
